From ChEMBL document CHEMBL1131355 (Bioorg Med Chem Lett, 1998)

What follows are compounds tested against 5-hydroxytryptamine receptor 2A (Rattus norvegicus, UniProt P14842) (assay: biochemical).
Format: tissue-based, Frontal cortex, Membrane
Description: Compound was measured for the inhibition of [3H]ketanserin binding to rat frontal cortex membrane (5-HT2A receptor)

5-hydroxytryptamine receptor 2A, sequence (P14842 whole entry): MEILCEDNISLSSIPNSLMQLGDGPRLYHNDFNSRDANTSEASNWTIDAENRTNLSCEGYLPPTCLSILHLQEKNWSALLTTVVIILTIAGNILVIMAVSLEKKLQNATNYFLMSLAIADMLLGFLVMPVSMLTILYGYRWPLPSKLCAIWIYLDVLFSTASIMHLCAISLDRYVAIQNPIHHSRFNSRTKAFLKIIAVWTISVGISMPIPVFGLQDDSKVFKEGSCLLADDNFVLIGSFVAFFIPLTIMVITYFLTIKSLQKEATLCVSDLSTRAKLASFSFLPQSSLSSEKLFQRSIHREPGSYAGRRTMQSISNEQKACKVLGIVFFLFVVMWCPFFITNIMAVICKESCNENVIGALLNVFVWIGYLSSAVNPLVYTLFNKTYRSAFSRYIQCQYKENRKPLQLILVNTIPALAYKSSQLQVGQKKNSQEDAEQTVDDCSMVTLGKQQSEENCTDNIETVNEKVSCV

| Ki | Structure (SMILES) |
| --- | --- |
| 9.12 nM | O=C1CC(CN2CCC(C(=O)c3ccc(F)cc3)CC2)Cc2[nH]c3ccccc3c21 (stereo not drawn) |
| 631 nM | COc1ccccc1N1CCN(CC2CC(=O)c3c([nH]c4ccccc34)C2)CC1 (stereo not drawn) |
| 1.58 nM | O=C1CC(CN2CCC(c3noc4cc(F)ccc34)CC2)Cc2[nH]c3ccccc3c21 (stereo not drawn) |
